Structures can show the parent of a compound that is named as a salt.
These molecules were tested against T1, SMO (Mus musculus, UniProt P56726) (assay: Smoothened (SMO)/Sonic Hedgehog (SHh) Transient Transcriptional Activation Assay (Gli-luciferase reporter in C3H10T1/2 cells)). Details: 2 μM test compound, SHh 250 ng/ml, 20 hrs, 2 µM.
T1 construct: endogenous in cells; host or cells: C3H10T1/2 (ATCC #CCL-226)
Format: cell-based, murine
Summary of the method: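 Luminescence (Dual-Glo) measured after 20 h co-exposure at 37 °C to 250 ng/ml human SHh and compound at 2 uM down to 2 nM final. Cells were C3H10T1/2 carrying a transfected murine 10× Gli response-element luciferase construct with pEGFP, starved 20 h in 0.5% calf serum beforehand.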

T1 sequence (P56726 33-793): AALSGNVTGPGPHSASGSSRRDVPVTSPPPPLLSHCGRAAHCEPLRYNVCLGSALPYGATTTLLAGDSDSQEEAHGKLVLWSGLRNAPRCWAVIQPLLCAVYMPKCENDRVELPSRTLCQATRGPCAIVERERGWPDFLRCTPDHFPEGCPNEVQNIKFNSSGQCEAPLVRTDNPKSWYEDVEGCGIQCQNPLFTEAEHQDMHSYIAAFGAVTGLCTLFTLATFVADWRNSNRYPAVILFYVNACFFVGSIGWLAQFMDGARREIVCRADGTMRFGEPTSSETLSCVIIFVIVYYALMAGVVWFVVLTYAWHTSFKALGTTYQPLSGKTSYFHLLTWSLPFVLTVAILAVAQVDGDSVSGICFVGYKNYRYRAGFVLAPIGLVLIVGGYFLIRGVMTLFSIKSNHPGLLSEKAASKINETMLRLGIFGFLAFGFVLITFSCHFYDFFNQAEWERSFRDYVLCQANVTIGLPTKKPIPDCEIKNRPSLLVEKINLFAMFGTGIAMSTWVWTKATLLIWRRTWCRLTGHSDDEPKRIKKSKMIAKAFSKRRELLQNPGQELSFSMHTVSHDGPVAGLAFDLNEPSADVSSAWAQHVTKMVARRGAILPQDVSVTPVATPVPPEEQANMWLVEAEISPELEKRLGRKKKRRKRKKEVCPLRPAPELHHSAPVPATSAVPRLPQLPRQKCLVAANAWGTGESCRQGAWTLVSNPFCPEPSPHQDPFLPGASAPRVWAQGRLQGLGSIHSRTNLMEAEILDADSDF

SMILES | SMO CELL % INHIBITION @ 2 μM [%]
CN1CCCc2cc(C(=O)N[C@@H]3CCC[C@H](c4nc5ccccc5[nH]4)C3)ccc21 [Example 201, N-[(1R,3S)-3-(1H-benzimidazol-2-yl)cyclohexyl]-1-methyl-1,2,3,4-tetrahydroquino-line-6-carboxamide triflouroacetate] | 101

Same assay, conditions: C3H 10T1/2, 2 μM test compound, SHh 250 ng/ml, 20 hrs, read-out: SMO CELL % INHIBITION @ 2 μM

SMILES | inhibition at 2 µM [%]
O=C(N[C@@H]1CCC[C@H](c2nc3ccccc3[nH]2)C1)c1cc2ccccc2s1 [Example 182, N-[(1R,3S)-3-(1H-benzimidazol-2-yl)cyclohexyl]-1-benzothiophene-2-carboxamide triflouroacetate] | 106
Cc1ccc(C(=O)N[C@@H]2CCC[C@H](c3nc4ccccc4[nH]3)C2)c2ccccc12 [Example 183, N-[(1R,3S)-3-(1H-benzimidazol-2-yl)cyclohexyl]-4-methyl-1-naphthamide triflouroacetate] | 95
COc1ccc2oc(C(=O)N[C@@H]3CCC[C@H](c4nc5ccccc5[nH]4)C3)cc2c1 [Example 184, N-[(1R,3S)-3-(1H-benzimidazol-2-yl)cyclohexyl]-5-methoxy-1-benzofuran-2-carboxamide triflouroacetate] | 61
O=C(N[C@@H]1CCC[C@H](c2nc3ccccc3[nH]2)C1)[C@@H]1COc2ccccc2O1 [Example 185, (2S)-N-[(1R,3S)-3-(1H-benzimidazol-2-yl)cyclohexyl]-2,3-dihydro-1,4-benzodioxine-2-carboxamide triflouroacetate] | 81
O=C(N[C@@H]1CCC[C@H](c2nc3ccccc3[nH]2)C1)c1cccc2ccccc12 [Example 188, N-[(1R,3S)-3-(1H-benzimidazol-2-yl)cyclohexyl]-1-naphthamide triflouroacetate] | 64
Cc1c(C(=O)N[C@@H]2CCC[C@H](c3nc4ccccc4[nH]3)C2)oc2ccccc12 [Example 189, N-[(1R,3S)-3-(1H-benzimidazol-2-yl)cyclohexyl]-3-methyl-1-benzofuran-2-carboxamide triflouroacetate] | 65
Cc1ccc2[nH]c(C(=O)N[C@@H]3CCC[C@H](c4nc5ccccc5[nH]4)C3)c(C)c2c1 [Example 191, N-[(1R,3S)-3-(1H-benzimidazol-2-yl)cyclohexyl]-3,5-dimethyl-1H-indole-2-carboxamide triflouroacetate] | 107
Cc1[nH]c2ccc(C(=O)N[C@@H]3CCC[C@H](c4nc5ccccc5[nH]4)C3)cc2c1C [Example 192, N-[(1R,3S)-3-(1H-benzimidazol-2-yl)cyclohexyl]-2,3-dimethyl-1H-indole-5-carboxamide triflouroacetate] | 109
Cc1cc(C)n2nc(C(=O)N[C@@H]3CCC[C@H](c4nc5ccccc5[nH]4)C3)cc2n1 [Example 194, N-[(1R,3S)-3-(1H-benzimidazol-2-yl)cyclohexyl]-5,7-dimethylpyrazolo-[1,5-a]pyrimidine-2-carboxamide triflouroacetate] | 47
O=C(N[C@@H]1CCC[C@H](c2nc3ccccc3[nH]2)C1)C1COc2ccccc2C1 (stereo partly drawn) [Example 195, N-[(1R,3S)-3-(1H-benzimidazol-2-yl)cyclohexyl] chromane-3-carboxamide triflouroacetate] | 81
O=C(N[C@@H]1CCC[C@H](c2nc3ccccc3[nH]2)C1)C1COc2ccccc2O1 (stereo partly drawn) [Example 196, N-[(1R,3S)-3-(1H-benzimidazol-2-yl)cyclohexyl]-2,3-dihydro-1,4-benzodioxine-2-carboxamide triflouroacetate] | 70
O=C(N[C@@H]1CCC[C@H](c2nc3ccccc3[nH]2)C1)c1n[nH]c2ccccc12 [Example 199, N-[(1R,3S)-3-(1H-benzimidazol-2-yl)cyclohexyl]-1H-indazole-3-carboxamide triflouroacetate] | 67
Cc1nn(C)c2sc(C(=O)N[C@@H]3CCC[C@H](c4nc5ccccc5[nH]4)C3)cc12 [Example 204, N-[(1R,3S)-3-(1H-benzimidazol-2-yl)cyclohexyl]-1,3-dimethyl-1H-thieno[2,3-c]pyrazole-5-carboxamide triflouroacetate] | 103
O=C(N[C@@H]1CCC[C@H](c2nc3ccccc3[nH]2)C1)c1c[nH]c2ccccc12 [Example 205, N-[(1R,3S)-3-(1H-benzimidazol-2-yl)cyclohexyl]-1H-indole-3-carboxamide triflouroacetate] | 54
O=C(N[C@@H]1CCC[C@H](c2nc3ccccc3[nH]2)C1)[C@H]1CCc2ccccc2O1 [Example 207, (2R)-N-[(1R,3S)-3-(1H-benzimidazol-2-yl)cyclohexyl]-chromane-2-carboxamide triflouroacetate] | 107
COc1cccc2[nH]c(C(=O)N[C@@H]3CCC[C@H](c4nc5ccccc5[nH]4)C3)cc12 [Example 208, N-[(1R,3S)-3-(1H-benzimidazol-2-yl)cyclohexyl]-4-methoxy-1H-indole-2-carboxamide triflouroacetate] | 80
O=C(N[C@@H]1CCC[C@H](c2nc3ccccc3[nH]2)C1)c1cc2ccc(F)cc2[nH]1 [Example 209, N-[(1R,3S)-3-(1H-benzimidazol-2-yl)cyclohexyl]-6-fluoro-1H-indole-2-carboxamide triflouroacetate] | 32
O=C(N[C@@H]1CCC[C@H](c2nc3ccccc3[nH]2)C1)c1cc2ccc(Cl)cc2[nH]1 [Example 210, N-[(1R,3S)-3-(1H-benzimidazol-2-yl)cyclohexyl]-6-chloro-1H-indole-2-carboxamide triflouroacetate] | 88
COc1ccc2cc(C(=O)N[C@@H]3CCC[C@H](c4nc5ccccc5[nH]4)C3)[nH]c2c1 [Example 211, N-[(1R,3S)-3-(1H-benzimidazol-2-yl)cyclohexyl]-6-methoxy-1H-indole-2-carboxamide triflouroacetate] | 89
O=C(N[C@@H]1CCC[C@H](c2nc3ccccc3[nH]2)C1)c1n[nH]c2c1CCCCCC2 [Example 212, N-[(1R,3S)-3-(1H-benzimidazol-2-yl)cyclohexyl]-4,5,6,7,8,9-hexahydro-1H-cycloocta[c] pyrazole-3-carboxamide triflouroacetate] | 71
CCc1c(C(=O)N[C@@H]2CCC[C@H](c3nc4ccccc4[nH]3)C2)[nH]c2ccccc12 [Example 214, N-[(1R,3S)-3-(1H-benzimidazol-2-yl)cyclohexyl]-3-ethyl-1H-indole-2-carboxamide triflouroacetate] | 100

The remaining lines, values ahead:

inhibition at 2 µM [%] | SMILES
59 | O=C(N[C@@H]1CCC[C@H](c2nc3ccccc3[nH]2)C1)c1ccc2c(c1)OCO2 [Example 186, N-[(1R,3S)-3-(1H-benzimidazol-2-yl)cyclohexyl]-1,3-benzodioxole-5-carboxamide triflouroacetate]
94 | O=C(N[C@@H]1CCC[C@H](c2nc3ccccc3[nH]2)C1)c1ccc2ccccc2c1 [Example 187, N-[(1R,3S)-3-(1H-benzimidazol-2-yl)cyclohexyl]-2-naphthamide triflouroacetate]
37 | O=C(N[C@@H]1CCC[C@H](c2nc3ccccc3[nH]2)C1)c1ccc2nonc2c1 [Example 190, N-[(1R,3S)-3-(1H-benzimidazol-2-yl)cyclohexyl]-2,1,3-benzoxadiazole-5-carboxamide triflouroacetate]
53 | O=C(N[C@@H]1CCC[C@H](c2nc3ccccc3[nH]2)C1)C1=Cc2ccccc2OC1 [Example 193, N-[(1R,3S)-3-(1H-benzimidazol-2-yl)cyclohexyl]-2H-chromene-3-carboxamide triflouroacetate]
50 | Cc1nc2cc(C(=O)N[C@@H]3CCC[C@H](c4nc5ccccc5[nH]4)C3)ccc2[nH]1 [Example 197, N-[(1R,3S)-3-(1H-benzimidazol-2-yl)cyclohexyl]-2-methyl-1H-benzimidazole-5-carboxamide triflouroacetate]
85 | O=C(N[C@@H]1CCC[C@H](c2nc3ccccc3[nH]2)C1)c1ccc2c(c1)CCO2 [Example 198, N-[(1R,3S)-3-(1H-benzimidazol-2-yl)cyclohexyl]-2,3-dihydro-1-benzofuran-5-carboxamide triflouroacetate]
110 | CN1CCCc2cc(C(=O)N[C@@H]3CCC[C@H](c4nc5ccccc5[nH]4)C3)ccc21 [Example 200, N-[(1R,3S)-3-(1H-benzimidazol-2-yl)cyclohexyl]-1-methyl-1,2,3,4-tetrahydroquino-line-6-carboxamide HCl]
34 | O=C(N[C@@H]1CCC[C@H](c2nc3ccccc3[nH]2)C1)c1ccc2snnc2c1 [Example 202, N-[(1R,3S)-3-(1H-benzimidazol-2-yl)cyclohexyl]-1,2,3-benzothiadiazole-5-carboxamide triflouroacetate]
109 | O=C(N[C@@H]1CCC[C@H](c2nc3ccccc3[nH]2)C1)c1ccc2cc[nH]c2c1 [Example 203, N-[(1R,3S)-3-(1H-benzimidazol-2-yl)cyclohexyl]-1H-indole-6-carboxamide triflouroacetate]
56 | O=C(N[C@@H]1CCC[C@H](c2nc3ccccc3[nH]2)C1)c1ccc2nsnc2c1 [Example 206, N-[(1R,3S)-3-(1H-benzimidazol-2-yl)cyclohexyl]-2,1,3-benzothiadiazole-5-carboxamide triflouroacetate]
73 | O=C(N[C@@H]1CCC[C@H](c2nc3ccccc3[nH]2)C1)c1ccc2oc(=O)[nH]c2c1 [Example 213, N-[(1R,3S)-3-(1H-benzimidazol-2-yl)cyclohexyl]-2-oxo-2,3-dihydro-1,3-benzoxazole-5-carboxamide triflouroacetate]
46 | Cc1nc2cc(C(=O)N[C@@H]3CCC[C@H](c4nc5ccccc5[nH]4)C3)ccc2s1 [Example 215, N-[(1R,3S)-3-(1H-benzimidazol-2-yl)cyclohexyl]-2-methyl-1,3-benzothiazole-5-carboxamide triflouroacetate]

— patent US20100029615A1, “BENZIMIDAZOLE DERIVATIVES” (priority 2006, published 2010)
